One compound from BindingDB's records for doi:10.1021/jm00102a007 (University of South Florida, 1993) can be followed below.

Molecules are shown by their SMILES.

The target of the assay is T1, Adenosine receptor A1 (Cavia porcellus, UniProt P47745).
T1 sequence (P47745 whole entry): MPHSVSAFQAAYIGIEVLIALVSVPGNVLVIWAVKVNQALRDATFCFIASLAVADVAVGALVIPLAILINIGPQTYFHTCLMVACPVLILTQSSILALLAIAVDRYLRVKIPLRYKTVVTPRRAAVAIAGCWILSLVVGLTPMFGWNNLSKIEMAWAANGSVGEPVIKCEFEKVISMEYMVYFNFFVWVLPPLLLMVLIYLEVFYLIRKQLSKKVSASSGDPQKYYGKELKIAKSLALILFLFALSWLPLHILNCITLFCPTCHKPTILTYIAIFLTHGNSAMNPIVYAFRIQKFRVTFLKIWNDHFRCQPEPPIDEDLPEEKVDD
In words: ChEBML_29278. The source says:
In vitro prolonging of the stimulus-QRS interval in guinea pig heart.

On to `CCCCCN=Nc1nc(N)c2ncn(C3O[C@H](CO)[C@@H](O)[C@H]3O)c2n1` (stereo partly specified), for which the EC50 is 25.1 µM.
